Test results reported in patent publication US20090012088A1 (priority 2005, published 2009).
Where two headings read alike, the source gives them in different places.

Assays:
Assay type in all cases: cell-based
[1] = system: neuronally differentiated PC-12 cells; test: Protection from rotenone induced toxicity in neuronally differentiated PC-12 cells
Experimental: Rotenone is a complex I poison and is widely used in cell culture and animal models of PD. (20, 31, 32) To determine if PIP-1 protects cells from rotenone insult, PC-12 cells are neuronally differentiated (with neuronal growth factor β for 10 days) and then treated with 10 μM rotenone and a range of PIP-1 concentrations. After 72 hours, cell death is assessed using propidium iodide staining as measured by flow cytometry. […] To determine the features on PIP-1 that are important for PARG inhibition and cell protection, three derivatives are constructed that lacked key functionality (see FIG. 19 compounds labeled 3, 4 and 5).
Cell culture conditions: HL-60 and SK-N-SH cells are grown in RPMI 1640 media supplemented with 10% FBS and PC-12 cells are grown in RPMI 1640 media supplemented with 10% HS and 5% FBS. All cell lines are incubated at 37° C. in a 5% CO2, 95% air atmosphere. HL-60 cells are split every two to three days as needed and SK-N-SH cells are split when they reach approximately 90% confluency at a 1:6 ratio. SK-N-SH cells are differentiated by adding media containing 10 μM retinoic acid (in DMSO). Media is replaced every other day and cells are differentiated for a total of 12 days. PC-12 cells are differentiated by adding media containing 25 ng/mL Neuronal Growth Factro β. Media is replaced every other day and cells are differentiated for a total of 10 days. Differentiation is observed by microscopy.
(§1) Protection of Rotenone and MPP^+ induced toxicity in PC-12 and SK-N-SH cells: SK-N-SH and PC-12 cells are neuronally differentiated as described above. 10 μM rotenone, 10 μM MPP^+ and various concentrations of PIP-1 or its derivatives are added to the cells and incubated for 72 h. The cells are then washed in PBS and the viability is determined by adding propidium iodide to 1 μg/mL and measuring the fluorescent intensity of each cell by flow cytometry.

[2] = system: NAD^+ depletion in HL-60 cell lysate; test: Whole cell assay screen: NAD+ depletion in H2O2-activated HL-60 cell lysate
Experimental: To identify a non-toxic, non-DNA intercalating, cell permeable small molecule inhibitor of PARG, a high-throughput screen is devised. Given the severe challenges in isolating enough of the PAR substrate for an in vitro screen directly for PARG inhibition, we develop a primary screen that utilizes cell lysates and, in particular, mammalian cell lysates. In this assay, HL-60 cells are treated with H2O2 to damage their DNA (which activates PARP-1) and then lyse the cells. In individual wells of a 384-well plate, this cell lysate is incubated with 22,000 different small molecules from an in-house compound collection; these compounds are either purchased (from ChemBridge Corp.) or collected from various sources at the University of Illinois. (28) NAD^+ levels are measured using a fluorescent method based on the chemical conversion of NAD^+ to a fluorescent product (29, 30) (FIG. 14A). The amount of NAD^+ consumed in each well is monitored, and any compounds that prevent NAD^+ consumption are classified “hits” in this primary screen.
Library screen: 12.5 μL of Lysing PARP buffer (50 mM Tris, 10 mM MgCl2, pH 8.0, 1% Triton X-100) containing 100 μM NAD^+ is added to each well of a 384-well plate. Library compounds at 10 mM in DMSO are transferred using a 384-well pin transfer device that delivers 0.1 μL. HL-60 cells are spun down at 200 g for 5 min. and resuspended in Lysing PARP buffer to a concentration of 8×10^6 cells/mL. 10 μL of a 30% H2O2 solution is added per mL of cells. 12.5 μL of the activated cell lysate is added to the plates. The plates are incubated for 60 min. at 37° C. The concentration of NAD^+ is then determined using a fluorescent assay^1. 10 μL of a 2 M KOH solution and 10 μL of a 20% acetophenone solution (in ethanol) is added to each well. The plate is then incubated at 4° C. for 10 min. 45 μL of a 88% formic acid solution was added to each well. The plate was then incubated for 5 min. in a 110° C. oven. Once the plate cools, the fluorescent intensity of each well is determined on a Criterion Analyst AD (Molecular Devices) with an excitation of 360 nm and an emission of 445 nm.

[3] = system: neuronally differentiated SK-N-SH cells; test: Protection from MPP+ induced toxicity in neuronally differentiated SK-N-SH cells; conditions: 10 μM MPP+, 72 h, read-out: EC50 (IC50) for protection from MPP+ induced cell death
Experimental: In vivo MPTP is metabolized to its active form, the 1-methyl-4-phenylpyridinium ion (MPP^+), and MPP^+ has proven very useful in a variety of cell culture models of PD. To determine the protective effect of PIP-1 on cells subjected to MPP^+ insult, PC-12 (differentiated as above) and SK-N-SH (differentiated with retinoic acid for 12 days) cells are treated with 10 μM MPP^+ and a range of PIP-1 concentrations, and cell death is assessed by propidium iodide staining and flow cytometry. […] As shown in FIGS. 20A and 20B, PIP-1 also protects differentiated PC-12 and SK-N-SH cells from rotenone-induced toxicity as well.
Cell culture conditions: HL-60 and SK-N-SH cells are grown in RPMI 1640 media supplemented with 10% FBS and PC-12 cells are grown in RPMI 1640 media supplemented with 10% HS and 5% FBS. All cell lines are incubated at 37° C. in a 5% CO2, 95% air atmosphere. HL-60 cells are split every two to three days as needed and SK-N-SH cells are split when they reach approximately 90% confluency at a 1:6 ratio. […]
as §1, with “10 μM rotenone, 10 μM MPP^+ and various concentrations of PIP-1 or its derivatives are added to the cells and incubated for 72 h.” left out

| SMILES | Protection of rotenone-treated neuronally differentiated PC-12 cells (in words) [1] | EC50 ([1]; Rattus norvegicus, differentiated PC-12 cells, 10 μM rotenone, 72 h, read-out: EC50 (IC50) for protection from rotenone induced toxicity) [µM] | Inhibition of NAD+ depletion in the whole cell assay [2] | EC50 [3] [µM] | EC50 ([3]; Homo sapiens, SK-N-SH) [µM] | Protection of rotenone-treated neuronally differentiated PC-12 cells (in words) ([1]; listed as analogue 5) |
| --- | --- | --- | --- | --- | --- | --- |
| CN(C)c1cnn(-c2ccccc2)c(=O)c1N [PIP-1, 4-Amino-5-dimethylamino-2-phenyl-2H-pyridazin-3-one] | protect | 5.36 | inhibit NAD^+ depletion | 1.64 | ~1.8 |  |
| Nc1c(Cl)cnn(-c2ccccc2)c1=O [compound 5, 4-Amino-5-chloro-2-phenyl-2H-pyridazin-3-one] | inactive |  | do not inhibit NAD^+ depletion |  |  | do not protect |
